pEC50: −log10 of the molar value. “Also recorded” adds a separate entry of the source. Like-named read-outs stand apart in the source and are kept apart here.

Data set [1] concerns the target T1, OMA1 protease (Homo sapiens, UniProt Q96E52).
T1 sequence (Q96E52 144-524): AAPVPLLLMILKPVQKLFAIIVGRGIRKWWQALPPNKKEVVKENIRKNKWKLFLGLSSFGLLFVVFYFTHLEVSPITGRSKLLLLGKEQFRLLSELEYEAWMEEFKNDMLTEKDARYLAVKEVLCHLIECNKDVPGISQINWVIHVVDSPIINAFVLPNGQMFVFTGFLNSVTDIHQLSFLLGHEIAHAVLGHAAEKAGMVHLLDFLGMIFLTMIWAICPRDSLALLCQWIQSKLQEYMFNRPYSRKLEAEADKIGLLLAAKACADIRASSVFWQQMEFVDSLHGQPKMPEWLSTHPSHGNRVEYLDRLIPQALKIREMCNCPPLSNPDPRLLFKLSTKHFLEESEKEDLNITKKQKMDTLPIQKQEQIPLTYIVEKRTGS
Nature of the data set: cell-based. The source says:
Example 1 provides a nonlimiting example of generation and use of a reporter of present invention and illustrates its function. To this end, generation and use of reporter gene #01 (SEQ ID NO: 01) and reporter gene #15 (SEQ ID NO: 15) are described and their function compared to each other. The general design of a reporter of present invention is illustrated in FIG. 1A and its working principle in FIG. 1B. A reporter in general, and reporter gene #01 and reporter gene #15 in particular, can be generated as follows. DNA sequences of a reporter may be codon-optimized in silico or by any other way for expression in a suitable host. DNA sequences of reporter genes #01 and #15 were codon-optimized for expression in humans (SEQ ID NO: 02 and SEQ ID NO: 16, respectively). The (optimized) sequences were synthesized and cloned into a pcDNA3.1 expression vector under the control of a CMV promotor (see FIG. 1 for an illustration of such vector). Of course, an expression system and a host should match for best results. The host in this example were Hek293T cells, which were maintained under standard culture conditions in DMEM with 10% Fetal Bovine Serum and 1% Pen/Strep. For an experiment, Hek293T cells were seeded in opaque white tissue-culture treated 96-well plates at 80% confluency and transfected with vectors carrying reporter gene #01 and reporter gene #15 and 24 hours later incubated for 30 minutes at 37° C. in OptiMEM or in OptiMEM with 10 μM CCCP. After 30 minutes, the OptiMEM cell-culture media was replaced with luciferase substrate (furimazine, Promega) diluted 1:100 in OptiMEM, and bioluminescence was measured with a Fluoroskan Ascent FL (Thermo Scientific) using a 517 nm single-pass filter and 200 milliseconds integration time. […] Reporter #01 comprises a large part of OPA1's amino-terminus as mitochondrial targeting sequence, which is cleaved by the mitochondrial processing peptidase upon mitochondrial import (see Example 2). Reporter #15 was initially envisioned as a control for reporter #01. Reporter #15 therefore lacks the first 66 amino acids of reporter #01 believed to be essential for mitochondrial import.
Example 5 illustrates how mitochondrial toxicity can be measured with reporter and assays of present invention. The OMA1-OPA1 pathway basically serves as a “canary-in-the-coalmine” for a mitochondrial deterioration. […] Hek293T cells expressing reporter #01 and #15 were exposed to CCCP, tipranavir and sorafenib (in OptiMEM) for 30 minutes before the medium was replaced with furimazine (1:100), and bioluminescence measured.

Data set [2] addresses T2, NanoLuc luciferase (Oplophorus gracilirostris, UniProt Q9GV45, A31E/A60N/A81I/F95D/I117V/K70R/L54V/L99Q/M102K/N193R/P142E/Q151K/Q38R/Q45L/V71I/Y165I).
T2 construct: expressed in transfected cells; host or cells: 'Luke' cells
The data set is described as follows: Luke (native NanoLuc) control cell assay in Hek293T cells. Format: cell-based.
Excerpt: Example 6 refers to FIG. 11 and introduces the Luke-S1 reporter cell line, which is based on a modified NanoLuc complementation system (Dixon, et al. ACS Chem Biol (2016) 11(2): 400-8). […] Luke-S1 is targeted to the mitochondrial inner membrane by an 86 amino acid portion of OPA1's c-terminus with the protein sequence SEQ ID NO: 27 and the DNA sequence SEQ ID NO:28. A reporter in which the S1 site was replaced by a TEV cleavage site (referred to as ‘Luke-TEV’) and the native NanoLuc enzyme (referred to as ‘Luke’) served as controls.

Data set [3] has as its target OMA1 protease (Mus musculus, UniProt Q9D8H7). The conditions noted are these: Neuro2A cells. The source says: In this example, the S1-cleavage site of reporter #15 was replaced with a TEV-cleavage site (see also Example 6). Neuro2A cells were transfected with reporter #15-S1 and reporter #15-TEV and selected by puromycin. […] FIG. 7 provides an overview of the arrangement of elements of different reporter genes, which comprise inter alia the amino acid sequences of SEQ ID NO: 01 (Rep #01), SEQ ID NO: 03 (Rep #04), SEQ ID NO: 09 (Rep #08), SEQ ID NO: 13 (Rep #10), and SEQ ID NO: 15 (Rep #15).

Data set [4] has as its system L-OPA1. The data set is described as follows: OPA1 hydrolysis in Hek293T cells by Western blot. The following applies: 30 minutes. Format: cell-based. The source says: (§1) OPA1 hydrolysis can be monitored by Western blotting. […] The predicted size of full-length Luke-S1 is 31.8 kDa.
For orientation: A western blot detects proteins with antibodies after separation by electrophoresis.

Data set [5] concerns the target T1, OMA1 protease. The data set is described as follows: Luke-TEV (TEV site instead of S1) reporter assay in Hek293T cells. Format: cell-based. Also noted: The OMA 1 enzyme is dormant under physiological cell culture conditions in these cells; endogenous in cells. (In general: In a reporter assay the amount or activity of a reporter protein is the signal.)
Data set [6] concerns the target T1, OMA1 protease. The data set is described as follows: Reporter hydrolysis in Hek293T reporter cells by Western blot. Format: cell-based. Details: The OMA 1 enzyme is dormant under physiological cell culture conditions in these cells; endogenous in cells. The following applies: for Luke-S1 reporter cleavage in Western blots / Luke-TEV reporter cleavage in Western blots: 3 μM CCCP or 100 nM valinomycin. As for the experimental part:
For this example, transfected cells were selected by puromycin. […] […] If reporter #15 indeed is cleaved by OMA1, then phenanthroline should prevent this at least to a certain extend by inhibiting OMA1 and accordingly preserving the signal. Hek293T cells were transfected with reporter gene #15 as described in the preceding example. After 24 hours, the transfected cells were incubated with 500 μM phenanthroline in OptiMEM. After 1 hour of pretreatment, CCCP in OptiMEM/phenanthroline was added to a final concentration of 10 μM CCCP and cells incubated for another 30 minutes at 37° C. After 30 minutes, the medium was replaced with furimazine (1:100 in OptiMEM), and bioluminescence measured as described in Example 1.
as §1

Data set [7] deals with T1, OMA1 protease. Nature of the data set: Rep #01 luciferase reporter assay in Hek293T cells. The conditions noted are these: for bioluminescence of reporter #01 (mitochondrial toxicity): Hek293T cells exposed 30 minutes. The source says: Example 1 provides a nonlimiting example of generation and use of a reporter of present invention and illustrates its function. To this end, generation and use of reporter gene #01 (SEQ ID NO: 01) and reporter gene #15 (SEQ ID NO: 15) are described and their function compared to each other. The general design of a reporter of present invention is illustrated in FIG. 1A and its working principle in FIG. 1B. A reporter in general, and reporter gene #01 and reporter gene #15 in particular, can be generated as follows. DNA sequences of a reporter may be codon-optimized in silico or by any other way for expression in a suitable host. DNA sequences of reporter genes #01 and #15 were codon-optimized for expression in humans (SEQ ID NO: 02 and SEQ ID NO: 16, respectively). The (optimized) sequences were synthesized and cloned into a pcDNA3.1 expression vector under the control of a CMV promotor (see FIG. 1 for an illustration of such vector). Of course, an expression system and a host should match for best results. The host in this example were Hek293T cells, which were maintained under standard culture conditions in DMEM with 10% Fetal Bovine Serum and 1% Pen/Strep. For an experiment, Hek293T cells were seeded in opaque white tissue-culture treated 96-well plates at 80% confluency and transfected with vectors carrying reporter gene #01 and reporter gene #15 and 24 hours later incubated for 30 minutes at 37° C. in OptiMEM or in OptiMEM with 10 μM CCCP. After 30 minutes, the OptiMEM cell-culture media was replaced with luciferase substrate (furimazine, Promega) diluted 1:100 in OptiMEM, and bioluminescence was measured with a Fluoroskan Ascent FL (Thermo Scientific) using a 517 nm single-pass filter and 200 milliseconds integration time. […]
Example 5 illustrates how mitochondrial toxicity can be measured with reporter and assays of present invention. […] Hek293T cells expressing reporter #01 and #15 were exposed to CCCP, tipranavir and sorafenib (in OptiMEM) for 30 minutes before the medium was replaced with furimazine (1:100), and bioluminescence measured.

Data set [8] concerns the target T1, OMA1 protease. Nature of the data set: Rep #15 / Luke-S1 assay for OMA1 inhibitors (preincubation with test compound, then OMA1 activator). Format: cell-based. Also noted: The OMA 1 enzyme is dormant under physiological cell culture conditions in these cells; endogenous in cells. The following applies: 500 μM phenanthroline 1 hour, then 10 μM CCCP 30 minutes. As for the experimental part: Example 2 refers to FIG. 4 and illustrates hydrolysis of reporter #01 and reporter #15. For this example, transfected cells were selected by puromycin. Reporter cells were exposed for 30 minutes to 10 μM CCCP before being harvested in RIPA buffer and subjected to 12% SDS-PAGE followed by Western-blotting. […] Full-length reporter #01 has a predicted size of 39.6 kDa but was not detected in Western blots. […] At the same time, reporter #15 is not processed upon import, but migrated at its expected size of 31.9 kDa. (Example 7 establishes mitochondrial import by showing co-migration of reporter #15 with OPA1 and OMA1 in mitochondria-enriched fractions.) Reporter #15 appears to be more abundant and stable, which may explain its better performance. […] This provides additional evidence that reporter #15 is indeed localized in mitochondria where it is recognized and hydrolyzed by OMA1. […] Therefore, phenanthroline was used as a positive control in the reporter assay. If reporter #15 indeed is cleaved by OMA1, then phenanthroline should prevent this at least to a certain extend by inhibiting OMA1 and accordingly preserving the signal. Hek293T cells were transfected with reporter gene #15 as described in the preceding example. […] After 30 minutes, the medium was replaced with furimazine (1:100 in OptiMEM), and bioluminescence measured as described in Example 1. […]

T2 sequence (Q9GV45 with tags, fused parts or gaps with the stated changes): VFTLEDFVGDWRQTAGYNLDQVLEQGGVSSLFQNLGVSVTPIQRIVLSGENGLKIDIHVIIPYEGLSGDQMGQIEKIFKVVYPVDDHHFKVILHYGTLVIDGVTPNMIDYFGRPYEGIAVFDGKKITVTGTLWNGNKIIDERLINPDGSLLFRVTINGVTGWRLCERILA
Chain of OMA1 protease (Mus musculus, UniProt Q9D8H7) (Q9D8H7 140-521): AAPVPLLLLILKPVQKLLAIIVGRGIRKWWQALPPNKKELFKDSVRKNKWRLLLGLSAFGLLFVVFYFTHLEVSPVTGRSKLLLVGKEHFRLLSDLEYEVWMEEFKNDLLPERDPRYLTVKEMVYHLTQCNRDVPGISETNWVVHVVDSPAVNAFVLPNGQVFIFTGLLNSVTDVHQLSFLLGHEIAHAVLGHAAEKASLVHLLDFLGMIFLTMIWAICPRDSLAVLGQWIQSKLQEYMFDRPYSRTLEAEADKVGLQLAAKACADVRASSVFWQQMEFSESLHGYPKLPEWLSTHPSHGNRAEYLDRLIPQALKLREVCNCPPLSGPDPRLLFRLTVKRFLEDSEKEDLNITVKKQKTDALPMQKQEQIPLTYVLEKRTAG

Usually pEC50 stands for the EC50 on a negative log10 scale, so that one unit is a factor of ten. Higher therefore signals a low EC50. Regarding `COC1=CC(=O)O[C@@H](/C=C/c2ccccc2)C1` [kavain, Kavain], the negative-log EC50 (pEC50) in data set [1] was 4.85.
`CC(C)[C@@H]1NC(=O)[C@H](C)OC(=O)[C@@H](C(C)C)NC(=O)[C@@H](C(C)C)OC(=O)[C@H](C(C)C)NC(=O)[C@H](C)OC(=O)[C@@H](C(C)C)NC(=O)[C@@H](C(C)C)OC(=O)[C@H](C(C)C)NC(=O)[C@H](C)OC(=O)[C@@H](C(C)C)NC(=O)[C@@H](C(C)C)OC1=O` [valinomycin] had a pEC50 in data set [1] of 7.75. The “Luke-S1 signal, cells transfected with OMA1 siRNA” value in data set [1] (100 nM valinomycin, 30 minutes) is given as “no significant signal reduction”. For the same molecule, the “Luke-S1 signal, cells transfected with control siRNA” value in data set [1] (100 nM valinomycin, 30 minutes) is given as “significant signal reduction”. Moreover, the “real-time bioluminescence versus cells without valinomycin” value in data set [1] (Luke-S1, 100 nM valinomycin added with luciferase substrate, 25 minutes) was “marked signal reduction from the start of the measurement”; in data set [2] (Luke, 100 nM valinomycin added with luciferase substrate, after 10 minutes), “no notable differences”; in data set [5] (Luke-TEV, 100 nM valinomycin added with luciferase substrate), “much smaller difference”. In data set [1] (valinomycin treated controls of the cancer drug screen, untreated = 100%), the “signal intensity normalized to untreated cells” value is on record as 18.5%. For the same molecule, the “effect on Luke bioluminescence” value in data set [2] (dose-response, 30 minutes) is reported as “no effects”. In addition, the “half maximal effective concentration (EC50)” value in data set [3] (reporter #15-S1, 30 minutes) was “low nanomolar range”; in data set [3] (reporter #15-TEV, 30 minutes) it was “low nanomolar range”. In data set [4] (0.1 μM (100 nM) valinomycin), the “OPA1 hydrolysis in Western blots” value is on record as “sufficed for OPA1 cleavage; also recorded: complete L-OPA1 proteolysis”. The “effect on Luke-TEV signal” value in data set [5] (dose-response, 30 minutes) is listed as “only a minor signal reduction”. In addition, the “Luke-S1 reporter cleavage in Western blots” value in data set [6] is “induced cleavage of the Luke-S1 reporter”. Moreover, the “Luke-TEV reporter cleavage in Western blots” value in data set [6] was “cleaved”.
Molecule `CCC[C@@]1(CCc2ccccc2)CC(O)=C([C@H](CC)c2cccc(NS(=O)(=O)c3ccc(C(F)(F)F)cn3)c2)C(=O)O1` [tipranavir] had a negative-log EC50 (pEC50) in data set [1] of 5.05. Moreover, the “bioluminescence of reporter #01 (mitochondrial toxicity)” value in data set [7] is reported as “deactivated; also recorded: significantly reduced bioluminescence”.
With `c1cnc2c(c1)ccc1cccnc12` [phenanthroline], the “bioluminescence signal of reporter #15 after pretreatment” value in data set [8] was “prevented reporter #15 deactivation and maintained the bioluminescence signal; also recorded: largely preserved”.
Take `N#CC(C#N)=NNc1cccc(Cl)c1` [CCCP, carbonyl cyanide m-chlorophenyl hydrazone]: in data set [7] (10 μM CCCP, 30 minutes), the “bioluminescence signal of reporter #01” value is given as “significantly reduced”. Moreover, the “bioluminescence of reporter #01 (mitochondrial toxicity)” value in data set [7] is listed as “significantly reduced bioluminescence”. Further, in data set [4] (3 μM CCCP), the “OPA1 hydrolysis in Western blots” value is reported as “complete disappearance of L-OPA1 isoforms; also recorded: complete L-OPA1 proteolysis”. Further, in data set [6], the “Luke-S1 reporter cleavage in Western blots” value is recorded as “induced cleavage of the Luke-S1 reporter” and the “Luke-TEV reporter cleavage in Western blots” value is recorded as “cleaved”. Further, in data set [6] (10 μM CCCP, 30 minutes), the “processing of reporter #01 in Western blot” value is “led to processing” and the “processing of reporter #15 in Western blot” value is “led to processing”.

For the origin of these results see US20240011070A1, “METHODS AND COMPOSITIONS FOR PROTEASE REPORTER ASSAYS AND MODULATORS” (712 North Inc., priority 2020, published 2024).
